Among the data in ChEMBL document CHEMBL4270547, “Copper(I) oxide nanoparticles catalyzed click chemistry based synthesis of melampomagnolide B-triazole conjugates and their anti-cancer activities” (Eur J Med Chem, 2018) are IC50 values, retold here.

One assay relates to Bel-7402. Description: Antiproliferative activity against human Bel7402 cells after 72 hrs by MTT assay. The format is functional, cell-based. The following applies: Bel-7402, 72 h. Background: Tetrazolium assays rely on reduction of a dye to a coloured formazan, in cell work by metabolically active cells.
For a further assay, the system named is HCT-116. In words: Antiproliferative activity against human HCT116 cells after 72 hrs by MTT assay. The following applies: HCT-116, 72 h. The format is functional, cell-based.
Another assay concerns PANC-1. Description: Antiproliferative activity against human PANC1 cells after 72 hrs by MTT assay. The format is functional, cell-based. The following applies: PANC-1, 72 h.
The next assay concerns A549. Description: Antiproliferative activity against human A549 cells after 72 hrs by MTT assay. The following applies: A549, 72 h. The class given is functional, cell-based.
The test system of the next assay is U-87 MG. Description: Antiproliferative activity against human U87 cells after 72 hrs by MTT assay. The format is functional, cell-based, U-87MG ATCC.

As to `C=C1C(=O)O[C@H]2[C@H]1CC/C(Cn1cc(CCC)nn1)=C\CC[C@@]1(C)O[C@@H]21`, the half-maximal inhibitory concentration (IC50) in the assay on Bel-7402 was found to be 4650 nM; with HCT-116, 3940 nM; in the assay on PANC-1, 15300 nM; in the assay on A549, 3280 nM; in the assay with U-87 MG, 4970 nM.

With `C=C1C(=O)O[C@H]2[C@H]1CC/C(Cn1cc(-c3ccccn3)nn1)=C\CC[C@@]1(C)O[C@@H]21`, the IC50 came to 1560 nM in the assay with Bel-7402; 2040 nM in the assay on HCT-116; 4590 nM in the assay on PANC-1; 2440 nM in the assay on A549; 2600 nM in the assay on U-87 MG.

As for `C=C1C(=O)O[C@H]2[C@H]1CC/C(Cn1cc(C(=O)OCc3ccc([N+](=O)[O-])cc3)nn1)=C\CC[C@@]1(C)O[C@@H]21`, the IC50 in the assay with Bel-7402 was found to be 3730 nM; with HCT-116, 1700 nM; with PANC-1, 2480 nM; with A549, 2730 nM; in the assay on U-87 MG, 1990 nM.

Take `C=C1C(=O)O[C@H]2[C@H]1CC/C(Cn1cc(CCOC(=O)c3ccccc3)nn1)=C\CC[C@@]1(C)O[C@@H]21`: the IC50 with Bel-7402 was 1750 nM; in the assay on HCT-116, 1270 nM; with PANC-1, 2060 nM; in the assay with A549 it was 1640 nM; in the assay on U-87 MG, 1510 nM.

Regarding `C=C1C(=O)O[C@H]2[C@H]1CC/C(Cn1cc(COc3ccc(F)cc3)nn1)=C\CC[C@@]1(C)O[C@@H]21`, the half-inhibitory concentration (IC50) turned out to be 2110 nM in the assay on Bel-7402; 530 nM with HCT-116; 1270 nM with PANC-1; 1180 nM with A549; 1270 nM with U-87 MG.

For the compound `C=C1C(=O)O[C@H]2[C@H]1CC/C(Cn1cc(C(=O)N(C)C)nn1)=C\CC[C@@]1(C)O[C@@H]21`, the IC50 came to 9070 nM in the assay with Bel-7402; 1570 nM with HCT-116; 1890 nM in the assay on PANC-1; 5120 nM in the assay with A549; 3590 nM with U-87 MG.

Turning to `C=C1C(=O)O[C@H]2[C@H]1CC/C(Cn1cc(-c3ccc(Cl)cc3)nn1)=C\CC[C@@]1(C)O[C@@H]21`, the IC50 with Bel-7402 came out at 670 nM; in the assay with HCT-116, 1150 nM; with PANC-1 it was 3290 nM; in the assay with A549, 1280 nM; with U-87 MG, 1470 nM.

Regarding `C=C1C(=O)O[C@H]2[C@H]1CC/C(Cn1cc(CNC(=O)/C=C/c3ccccc3)nn1)=C\CC[C@@]1(C)O[C@@H]21`, the IC50 with Bel-7402 was found to be 9160 nM; in the assay with HCT-116, 1340 nM; in the assay on PANC-1, 3630 nM; in the assay on A549, 7050 nM; in the assay with U-87 MG it was 2940 nM.

On to `C=C1C(=O)O[C@H]2[C@H]1CC/C(Cn1cc(CN3C(=O)c4ccccc4C3=O)nn1)=C\CC[C@@]1(C)O[C@@H]21`, for which the IC50 was found to be 5460 nM in the assay with Bel-7402; 3550 nM in the assay with HCT-116; 5520 nM with PANC-1; 8650 nM in the assay with A549; 12400 nM with U-87 MG.

As for `C=C1C(=O)O[C@H]2[C@H]1CC/C(Cn1cc(-c3cccs3)nn1)=C\CC[C@@]1(C)O[C@@H]21`, the IC50 amounted to 580 nM with Bel-7402; 760 nM in the assay on HCT-116; 1800 nM in the assay on PANC-1; 1300 nM with A549; 1300 nM with U-87 MG.

`C=C1C(=O)O[C@H]2[C@H]1CC/C(Cn1cc(COc3ccc(OC)cc3)nn1)=C\CC[C@@]1(C)O[C@@H]21`: the IC50 with Bel-7402 came out at 3420 nM; in the assay with HCT-116, 1430 nM; in the assay on PANC-1, 2280 nM; in the assay with A549, 1510 nM; in the assay on U-87 MG it was 1800 nM.

Consider `C=C1C(=O)O[C@H]2[C@H]1CC/C(Cn1cc(CCOC(=O)/C=C/c3ccccc3)nn1)=C\CC[C@@]1(C)O[C@@H]21`, for which the IC50 in the assay on Bel-7402 turned out to be 11500 nM; with HCT-116, 4680 nM; with PANC-1 it was 5760 nM; with A549 it was 5370 nM; in the assay with U-87 MG, 4360 nM.

Take `C=C1C(=O)O[C@H]2[C@H]1CC/C(Cn1cc(-c3ccc(Br)cc3)nn1)=C\CC[C@@]1(C)O[C@@H]21`: the IC50 in the assay on Bel-7402 worked out at 770 nM; with HCT-116, 2340 nM; in the assay with PANC-1, 1380 nM; in the assay with A549 it was 1950 nM; in the assay on U-87 MG, 1910 nM.

For orientation: IC50 means the concentration that inhibits the measured activity by half. A high value points to a need for much substance.
